Measured values reported in patent US5658942A, “Octahydronaphthalene oxime compounds for cholesterol synthesis inhibition” (Sankyo Company, Limited, priority 1987, dated 1997).

Target: T1, 3-hydroxy-3-methyl-glutaryl CoA reductase (Rattus norvegicus, UniProt P51639)
T1 construct: from tissue; host or cells: enzyme system separated from an experimental animal
T1 sequence (P51639 1-887): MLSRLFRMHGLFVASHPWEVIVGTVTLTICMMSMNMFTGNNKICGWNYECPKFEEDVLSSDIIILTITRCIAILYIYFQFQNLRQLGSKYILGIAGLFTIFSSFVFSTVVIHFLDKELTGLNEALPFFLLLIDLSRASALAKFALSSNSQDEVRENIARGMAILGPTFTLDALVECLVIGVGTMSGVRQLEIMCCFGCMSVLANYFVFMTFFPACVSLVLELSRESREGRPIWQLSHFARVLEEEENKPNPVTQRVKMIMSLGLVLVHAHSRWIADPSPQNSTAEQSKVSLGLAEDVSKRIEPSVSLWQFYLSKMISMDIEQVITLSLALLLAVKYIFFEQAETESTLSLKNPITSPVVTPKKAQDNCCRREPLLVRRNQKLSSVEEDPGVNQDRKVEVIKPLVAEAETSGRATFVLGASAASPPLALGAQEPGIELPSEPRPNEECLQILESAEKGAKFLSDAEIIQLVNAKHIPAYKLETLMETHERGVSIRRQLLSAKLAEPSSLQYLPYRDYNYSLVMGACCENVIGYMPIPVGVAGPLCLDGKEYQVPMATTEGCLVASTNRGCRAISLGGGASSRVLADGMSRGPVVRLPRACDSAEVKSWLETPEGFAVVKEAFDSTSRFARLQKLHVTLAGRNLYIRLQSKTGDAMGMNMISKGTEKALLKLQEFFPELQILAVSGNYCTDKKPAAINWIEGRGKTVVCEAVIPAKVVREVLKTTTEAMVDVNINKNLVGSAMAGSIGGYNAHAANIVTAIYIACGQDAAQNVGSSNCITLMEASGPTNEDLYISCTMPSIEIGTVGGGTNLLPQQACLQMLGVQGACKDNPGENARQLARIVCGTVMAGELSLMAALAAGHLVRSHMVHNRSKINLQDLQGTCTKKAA
Test: inhibition of 3-hydroxy-3-methyl-glutaryl CoA reductase (method of Kuroda et al.)
Assay type: biochemical
Settings: read-out: IC50 (concentration to achieve 50% inhibition of 3-hydroxy-3-methyl-glutaryl CoA reductase)
From the text: The compounds of the present invention have a marked ability to reduce the levels of serum cholesterol. Specifically, the biosynthesis of chlolesterol in an enzyme system or a culture cell system separated from an experimental animal is inhibited through competition with the rate limiting enzyme of 3-hydroxy-3-methylglutaryl-CoA reductase. […] The determination of the inhibitory activity of the compounds was made using the method of Kuroda et al ["Biochimica et Biophysica Acta" Vol. 486, pp. 70-81(1977)] which is a modification of the known method of D. J. Shapiro et al ["Analytical Biochemistry" Vol. 31, pp. 383-390(1969)] with some improvements.
The results are shown in Table 2, in which IC50 is the concentration to achieve 50% inhibition of 3-hydroxy-3-methyl-glutaryl CoA reductase (nM).

Row | Structure (SMILES) | IC50
1 | CCC(C)C(=O)OC1CCC(=NOCc2ccc([N+](=O)[O-])cc2)C2=CC(=O)C(C)C(CCC(O)CC(O)CC(=O)O)C21 (stereo not shown) [Example 4b, Sodium 1-(2-methylbutyryl)-3,4-dihydro-6-oxo-4-(4-nitrobenzyl)oxyiminoiso-ML-236ACarboxylate] | 21 nM
2 | CCC(C)C(=O)OC1CCC(=NOCc2cccnc2)C2=CC(=O)C(C)C(CCC(O)CC(O)CC(=O)O)C21 (stereo not shown) [Example 10b, Sodium 1-(2-methylbutyryl)-3,4-dihydro-6-oxo-4-(3-pyridylmethyl)oxyiminoiso-ML-236A Carboxylate] | 31.4 nM
3 | CCC(C)C(=O)OC1CCC(=NOCC=C(C)C)C2=CC(=O)C(C)C(CCC(O)CC(O)CC(=O)O)C21 (stereo not shown) [Example 17b, Sodium 1-(2-methylbutyryl)-3,4-dihydro-6-oxo-4-(3-methyl-2-butenyl)oxyiminoiso-ML-236A Carboxylate] | 21.3 nM
4 | CCC(C)C(=O)OC1CCC(=NOC)C2=CC(=O)C(C)C(CCC(O)CC(O)CC(=O)O)C21 (stereo not shown) [Compound B, Sodium 1-(2-methylbutyryl)-3,4-dihydro-6-oxo-4-methoxyiminoiso-ML-236A carboxylate, reference compound] | 39.5 nM
5 | CCC(C)C(=O)OC1CCC(=NOCc2ccccc2)C2=CC(=O)C(C)C(CCC(O)CC(O)CC(=O)OCc3ccccc3)C21 (stereo not shown) [Example 1(c), Benzyl-(2-methylbutyryl)-3,4-dihydro-6-oxo-4-benzyl-oxyiminoiso-ML-236A carboxylate] | 33.1 nM
6 | CCC(C)C(=O)OC1CCC(=NOCc2ccco2)C2=CC(=O)C(C)C(CCC(O)CC(O)CC(=O)O)C21 (stereo not shown) [Example 11b, Sodium 1-(2-methylbutyryl)-3,4-dihydro-6-oxo-4-furfuryl-oxyiminoiso-ML-236ACarboxylate] | 36 nM
7 | CCC(C)C(=O)OC1CCC(=NO)C2=CC(=O)C(C)C(CCC(O)CC(O)CC(=O)O)C21 (stereo not shown) [Compound A, Sodium 1-(2-methylbutyryl)-3,4-dihydro-6-oxo-4-hydroxyiminoiso-ML-236A carboxylate, reference compound] | 35.7 nM
8 | CCC(C)C(=O)OC1CCC(=NOCc2ccc(F)cc2)C2=CC(=O)C(C)C(CCC(O)CC(O)CC(=O)O)C21 (stereo not shown) [Example 3b, Sodium 1-(2-methylbutyryl)-3,4-dihydro-6-oxo-4-(4-fluorobenzyl)oxyiminoiso-ML-236A Carboxylate] | 26.5 nM
9 | CCC(C)C(=O)OC1CCC(=NOCc2ccccc2CO)C2=CC(=O)C(C)C(CCC(O)CC(O)CC(=O)O)C21 (stereo not shown) [Example 6b, Sodium 1-(2-methylbutyryl)-3,4-dihydro-6-oxo-4-(2-hydroxymethylbenzyl)oxyiminoiso-ML-236A Carboxylate] | 18.4 nM

Test system: serum cholesterol
Test: not given
Settings: animals; J. Antibiotics 29, 1346 (1976); cited from earlier work

Row | Structure (SMILES) | reduction of serum cholesterol levels
10 | CCC(C)C(=O)OC1CCC=C2C=CC(C)C(CCC3CC(O)CC(=O)O3)C21 (stereo not shown) [ML-236B] | significantly reduce
11 | CC1C=CC2=CCCC(O)C2C1CCC1CC(O)CC(=O)O1 (stereo not shown) [ML-236A] | significantly reduce

Test system: 3-hydroxy-3-methylglutaryl-coenzyme A reductase
Test: not given
Settings: enzymes or cultured cells from experimental animals; competing with HMG-CoA reductase; cited from earlier work

Row | Structure (SMILES) | inhibition of the biosynthesis of cholesterol
12 | CCC(C)C(=O)OC1CCC=C2C=CC(C)C(CCC3CC(O)CC(=O)O3)C21 (stereo not shown) [ML-236B] | inhibit the biosynthesis of cholesterol
13 | CC1C=CC2=CCCC(O)C2C1CCC1CC(O)CC(=O)O1 (stereo not shown) [ML-236A] | inhibit the biosynthesis of cholesterol
